Type in all cases: cell-based
Conditions in all cases: Homo sapiens

In assay [1] the test system is MCF-7 cells (human breast cancer cells). The assay can be described thus: MCF-7 cell proliferation inhibitory assay (CellTiter-Glo). The method, then: • 1). […] Resuspend an appropriate amount of cell suspension to 4000 cells/100 μL according to the count, mixed well and then put the corresponding number of cells into a 96-well plate by pipette. • 3). Each hole of the edge was sealed with 100 μL DPBS and put into an incubator for culture. • 4). Day 1 drug addition: Prepare the storage solution of the compound to be tested 1 hour in advance. 24 h after plating, the culture medium was gradiently diluted to a concentration twice the final concentration of each group. Take out the plated cells from the incubator and add 100 μL of the corresponding 2-fold concentration medium to each well by pipette.
Day 1 detected: Take out the plate to be tested and an appropriate amount of CTG in advance and rewarm it at room temperature in the dark. 50 μL of CTG was added to each well at 24 h. Shake with the oscillator for 5 minutes, and after balancing in the dark for 5 minutes, detect the luminescence value with a microplate reader; The mixture was shaken for 5 min, and after equilibration in the dark for 5 min, the luminescence value was detected with ELISA. • 6). Day 4 detection: Take an appropriate amount of CTG 1 h in advance and rewarm it at room temperature in the dark. At the same time, take out the plate to be tested from the incubator and leave it to equilibrate at room temperature for 30 minutes; 72 h after adding the drug, 100 μL of culture medium was sucked out with pipette carefully from each cell well, and 50 μL of CTG was added. The mixture was shaken for 5 min, and after equilibration in the dark for 5 min, the luminescence value was detected with ELISA analyzer. • 7). Data analysis and processed.
Collect data and convert it into survival rate: Inhibition rate (%)=(100−(OD value of compound-OD value on the first day)/(OD value of control well-OD value on the first day))×100%
(§1) Input the compound into graphpad prism to obtain the corresponding IC50 value.
(ATP-based viability assays read luminescence as a measure of living cells.)

Assay [2] concerns MDA-MB-435s cells (human melanoma cells). As to the kind of experiment: MDA-MB-435s cell proliferation inhibitory assay (CellTiter-Glo). The method, then: (§2) • 1). […] Resuspend an appropriate amount of cell suspension to 3000 cells/100 μL according to the count, mixed well and then put the corresponding number of cells into a 96-well plate by pipette. • 3). Each hole of the edge was sealed with 100 μL DPBS and put into an incubator for culture. • 4). Day 1 drug addition: Prepare the storage solution of the compound to be tested 1 hour in advance. 24 h after plating, the culture medium was gradiently diluted to a concentration twice the final concentration of each group. Take out the plated cells from the incubator and add 100 μL of the corresponding 2-fold concentration medium to each well by pipette. • 5). Day 1 detected: Take out an appropriate amount of CTG 1 h in advance and the plate was allowed to equilibrate at room temperature for 30 min. 100 μL of CTG was added to each well and shaken for 5 mins, and then standed in the dark for 5 mins, the luminescence value was detected by ELISA. • 6). Day 4 detection: Take an appropriate amount of CTG 1 h in advance and rewarm it at room temperature in the dark. At the same time, take out the plate to be tested from the incubator and leave it to equilibrate at room temperature for 30 minutes; 72 h after adding the drug, 100 μL of culture medium was sucked out with pipette carefully from each cell well, and 100 μL of CTG was added. The mixture was shaken for 5 min, and after equilibration in the dark for 5 min, the luminescence value was detected with ELISA. • 7). Analyze data and write detailed experimental records.
Collect data and convert it into survival rate: Inhibition rate (%)=(100−(OD value of compound−OD value on the first day)/(OD value of control well-OD value on the first day))×100%
as §1

Assay [3] concerns MDA-MB-231 cells (human breast cancer cells). The assay can be described thus: MDA-MB-231 cell proliferation inhibitory assay (CellTiter-Glo). The method, then:
as §2, §1

[4] abbreviates: MCF7, 72 h, read-out: Proliferation inhibition IC50.
Where [5] appears, read: MDA-MB-435S, 72 h, read-out: Proliferation inhibition IC50.
Where [6] appears, read: MDA-MB-231, 72 h, read-out: Proliferation inhibition IC50.

The record followed here is patent US20240376120A1, “CAMPTOTHECIN COMPOUND, PREPARATION METHOD THEREFOR AND USE THEREOF” (priority 2021, published 2024).

Where two headings read alike, the source gives them in different places.

`CC[C@@]1(O)C(=O)OCc2c1cc1n(c2=O)Cc2cc3ccccc3nc2-1` [Camptothecin]: the IC50 is 0.0422 µM in assay [1] (setting [4]) and 0.0102 µM in assay [2] (setting [5]).
For the molecule `CC[C@@]1(O)C(=O)OCc2c1cc1n(c2=O)Cc2c-1nc1cc(F)c(C)cc1c2[C@@H](C)NC(C)=O` [Compound 1f-1], the IC50 was 0.0152 µM in assay [1] (setting [4]), 0.11 µM in assay [3] (setting [6]) and 0.0058 µM in assay [2] (setting [5]).
For the molecule `CC[C@@]1(O)C(=O)OCc2c1cc1n(c2=O)Cc2c-1nc1cc(F)c(C)cc1c2[C@H](C)NC(C)=O` [Compound 1f-2], the IC50 in assay [1] (setting [4]) is 0.0116 µM; in assay [3] (setting [6]) it was 0.0742 µM; in assay [2] (setting [5]) it was 0.0035 µM.
For `CC[C@@]1(O)C(=O)OCc2c1cc1n(c2=O)Cc2c-1nc1cc(F)c(C)cc1c2[C@H](C)N` [Example 2] the same measures were 0.0026 µM, 0.0157 µM and 0.0023 µM.
Turning to `CC[C@@]1(O)C(=O)OCc2c1cc1n(c2=O)Cc2c-1nc1ccccc1c2[C@@H](C)N` [Example 3], the IC50 in assay [1] (setting [4]) is 0.0155 µM; in assay [3] (setting [6]) it was 0.12 µM; in assay [2] (setting [5]) it was 0.0112 µM.
For `CC[C@@]1(O)C(=O)OCc2c1cc1n(c2=O)Cc2c-1nc1ccccc1c2[C@H](C)N` [Example 4] the same measures were 0.0102 µM, 0.28 µM and 0.0163 µM.
With `CC[C@@]1(O)C(=O)OCc2c1cc1n(c2=O)Cc2c-1nc1ccc(O)cc1c2[C@@H](C)N` [Example 5], the IC50 in assay [1] (setting [4]) stood at 0.0123 µM; in assay [3] (setting [6]), 0.6 µM; in assay [2] (setting [5]), 0.0203 µM.
For the molecule `CC[C@@]1(O)C(=O)OCc2c1cc1n(c2=O)Cc2c-1nc1ccc(O)cc1c2[C@H](C)N` [Example 6], the IC50 was determined as 0.0084 µM in assay [1] (setting [4]), 1.1 µM in assay [3] (setting [6]) and 0.0368 µM in assay [2] (setting [5]).
As for `CC[C@@]1(O)C(=O)OCc2c1cc1n(c2=O)Cc2c-1nc1cc(F)c(C)cc1c2C(C)(C)N` [Example 7], the IC50 in assay [1] (setting [4]) was 0.0202 µM; in assay [3] (setting [6]), 0.32 µM; in assay [2] (setting [5]), 0.162 µM.
For `CC[C@@]1(O)C(=O)OCc2c1cc1n(c2=O)Cc2c-1nc1cc(F)c(C)cc1c2[C@@H]1CCCN1` [Example 8] the same measures were 0.0103 µM, 0.21 µM and 0.0352 µM.
In the same order, the values of `CC[C@@H](N)c1c2c(nc3ccccc13)-c1cc3c(c(=O)n1C2)COC(=O)[C@]3(O)CC` [Example 9R] are 0.0553 µM, 0.18 µM and 0.0153 µM.
As for `CC[C@H](N)c1c2c(nc3ccccc13)-c1cc3c(c(=O)n1C2)COC(=O)[C@]3(O)CC` [Example 9], the IC50 came to 0.0252 µM in assay [1] (setting [4]), 0.31 µM in assay [3] (setting [6]) and 0.0253 µM in assay [2] (setting [5]).
For `CC[C@@]1(O)C(=O)OCc2c1cc1n(c2=O)Cc2c-1nc1ccc(O)cc1c2[C@H](C)O` [Example 12-1] the same measures were 0.0322 µM, 0.5 µM and 0.0382 µM.
For the molecule `CC[C@@]1(O)C(=O)OCc2c1cc1n(c2=O)Cc2c-1nc1ccc(O)cc1c2C(C)O` (some centres unmarked) [Example 12], the IC50 was determined as 0.0503 µM in assay [1] (setting [4]), 1.2 µM in assay [3] (setting [6]) and 0.0593 µM in assay [2] (setting [5]).
As to `CC[C@@]1(O)C(=O)OCc2c1cc1n(c2=O)Cc2c-1nc1cc(F)c(C)cc1c2[C@@H](C)O` [Example 12d], the IC50 was 0.0068 µM in assay [1] (setting [4]); 0.0068 µM in assay [1] (MCF7, read-out: MCF-7 Proliferation inhibition IC50); 0.0123 µM in assay [3] (setting [6]); 0.0123 µM in assay [3] (MDA-MB-231, read-out: MDA-MB-231 Proliferation inhibition IC50); 0.0016 µM in assay [2] (setting [5]); 0.0016 µM in assay [2] (MDA-MB-435S, read-out: MDA-MB-435s Proliferation inhibition IC50).
As to `CC[C@@]1(O)C(=O)OCc2c1cc1n(c2=O)Cc2c-1nc1cc(F)c(C)cc1c2[C@H](C)NC(=O)CO` [Example 13], the IC50 in assay [1] (setting [4]) was 0.0083 µM; in assay [3] (MDA-MB-231 cells, 72 h after adding the drug, Table 2, read-out: Proliferation inhibition IC50) it was 0.0802 µM; in assay [2] (MDA-MB-435s cells, 72 h after adding the drug, Table 3, read-out: Proliferation inhibition IC50), 0.0028 µM.
For the molecule `CC[C@@]1(O)C(=O)OCc2c1cc1n(c2=O)Cc2c-1nc1cc(F)c(C)cc1c2[C@H](C)NC(=O)[C@H](C)O` [Example 14], the IC50 in assay [1] (setting [4]) was 0.0083 µM; in assay [3] (setting [6]) it was 0.0886 µM; in assay [2] (setting [5]), 0.0038 µM.
Consider `CC[C@@]1(O)C(=O)OCc2c1cc1n(c2=O)Cc2c-1nc1cc(F)c(C)cc1c2[C@H](C)NC(=O)[C@@H](C)O` [Example 15], for which the IC50 in assay [1] (setting [4]) came to 0.0106 µM; in assay [3] (setting [6]), 0.141 µM; in assay [2] (setting [5]), 0.0042 µM.
With `CC[C@@]1(O)C(=O)OCc2c1cc1n(c2=O)Cc2c-1nc1cc(F)c(C)cc1c2[C@H](C)NC(=O)C1(O)CC1` [Example 16], the IC50 in assay [1] (setting [4]) stood at 0.0123 µM; in assay [3] (setting [6]), 0.101 µM; in assay [2] (setting [5]), 0.0082 µM.
For the molecule `CC[C@@]1(O)C(=O)OCc2c1cc1n(c2=O)Cc2c-1nc1cc(F)c(C)cc1c2[C@H](C)NC(=O)[C@@H](O)C1CC1` [Example 17], the IC50 stood at 0.0078 µM in assay [1] (setting [4]), 0.0967 µM in assay [3] (setting [6]) and 0.0063 µM in assay [2] (setting [5]).
In the same order, the values of `CC[C@@]1(O)C(=O)OCc2c1cc1n(c2=O)Cc2c-1nc1cc(F)c(C)cc1c2[C@H](C)NC(=O)[C@H](O)C(F)(F)F` [Example 18] are 0.0113 µM, 0.15 µM and 0.0103 µM.
In the same order, the values of `CC[C@@]1(O)C(=O)OCc2c1cc1n(c2=O)Cc2c-1nc1cc(F)c(C)cc1c2[C@H](C)NC(=O)[C@@H](O)C(F)(F)F` [Example 19] are 0.0152 µM, 0.261 µM and 0.0153 µM.
Regarding `[2H]C([2H])(O)C(=O)N[C@@H](C)c1c2c(nc3cc(F)c(C)cc13)-c1cc3c(c(=O)n1C2)COC(=O)[C@]3(O)CC` [Example 20], the IC50 in assay [1] (setting [4]) came to 0.0078 µM; in assay [3] (setting [6]), 0.12 µM; in assay [2] (setting [5]) it was 0.0027 µM.
Turning to `CC[C@@]1(O)C(=O)OCc2c1cc1n(c2=O)Cc2c-1nc1cc(F)c(C)cc1c2[C@H](C)NC` [Example 21], the values for the IC50 in assay [1] (setting [4]), in assay [3] (setting [6]) and in assay [2] (setting [5]) were 0.0042 µM, 0.0202 µM and 0.0012 µM, respectively.
For `CC[C@@]1(O)C(=O)OCc2c1cc1n(c2=O)Cc2c-1nc1cc(F)c(C)cc1c2[C@H](C)N(C)C` [Example 22] the same measures were 0.0093 µM, 0.0608 µM and 0.0056 µM.
Turning to `[2H]C([2H])([2H])c1cc2c([C@H](C)N)c3c(nc2cc1F)-c1cc2c(c(=O)n1C3)COC(=O)[C@]2(O)CC` [Example 23], the IC50 was 0.0025 µM in assay [1] (setting [4]), 0.0077 µM in assay [3] (setting [6]) and 0.00076 µM in assay [2] (setting [5]).
In the same order, the values of `CC[C@@]1(O)C(=O)OCc2c1cc1n(c2=O)Cc2c-1nc1cc(F)c(C)cc1c2[C@H](C)[N+](C)(C)C` [Example 24] are 0.0102 µM, 0.0801 µM and 0.0066 µM.
In the same order, the values of `CC[C@@]1(O)C(=O)OCc2c1cc1n(c2=O)Cc2c-1nc1cc(F)c(C)cc1c2[C@H](C)NCCO` [Example 25] are 0.0302 µM, 0.261 µM and 0.0102 µM.
With `CC[C@@]1(O)C(=O)OCc2c1cc1n(c2=O)Cc2c-1nc1cc(F)c(C)cc1c2[C@H](C)NCCN(C)C` [Example 25a], the IC50 in assay [1] (setting [4]) came out at 0.0256 µM; in assay [3] (setting [6]) it was 0.0402 µM; in assay [2] (setting [5]) it was 0.0063 µM.
For `CC[C@@]1(O)C(=O)OCc2c1cc1n(c2=O)Cc2c-1nc1cc(F)c(C)cc1c2[C@@H](C)NCCN(C)C` [Example 25b] the same measures were 0.0351 µM, 0.0609 µM and 0.0096 µM.
